Laboratory results published in ChEMBL document CHEMBL2331180, “Synthetic glycolipids for glioma growth inhibition developed from neurostatin and NF115 compound” (2013).
Activity calls are given as the source filed them. The calls are words filed in the database; no cut-off is given here.

What was measured:
[1] = Antiproliferative activity against human […] cells assessed as inhibitory activity measured after 36 hrs by [3H]thymidine incorporation assay; format: functional; settings: read-out: ID50 (the source's name)
[2] = test system: C6; experiment: Antitumor activity against rat C6 cells transplanted to rat assessed as reduction in tumor growth at 8 mg/kg, intra-tumor treated after 1 week of tumor injection measured up to 15 days relative to untreated control; format: functional, organism-based; set-up: dose 8 mg/kg
[3] = Antiproliferative activity against human […] cells assessed as Human Bcl-x beta gene repression at IC50 concentration after 24 hrs by microarray analysis relative to control; format: functional
[4] = Antiproliferative activity against human […] cells assessed as Human epsilon 14-3-3 protein gene repression at IC50 concentration after 24 hrs by microarray analysis relative to control; format: functional
[5] = Antiproliferative activity against human […] cells assessed as Solute carrier family 4, anion exchanger, member 2 (erythrocyte membrane protein band 3-like 1) gene repression at IC50 concentration after 24 hrs by microarray analysis relative to control; format: functional
[6] = Antiproliferative activity against human […] cells assessed as Rho GDP dissociation inhibitor (GDI) alpha gene repression at IC50 concentration after 24 hrs by microarray analysis relative to control; format: functional
[7] = Antiproliferative activity against human […] cells assessed as Tumor protein p53 gene repression at IC50 concentration after 24 hrs by microarray analysis relative to control; format: functional

SMILES | IC50 [1] | Activity [2] | fold change (FC) [3] | fold change (FC) [4] | fold change (FC) [5] | fold change (FC) [6] | fold change (FC) [7]
CCCCCCCCCCCCCCCCO[C@H]1O[C@H](CO)[C@@H](O)[C@H](O)[C@H]1NC(C)=O | 13 µM | inactive |  |  |  |  | 
CCCCCCCCO[C@H]1O[C@H](COCC(CO)(CO)CO)[C@@H](O)[C@H](O)[C@H]1NC(C)=O | 180 µM |  | 0.3 | 0.5 | 0.7 | 0.3 | 0.5
CCCCCCCCCCCCCCCCO[C@H]1O[C@H](COCC(O)CO)[C@@H](O)[C@H](O)[C@H]1NC(=O)CCCC (some centres not stated) | 4.6 µM | inactive |  |  |  |  | 
CCCCCCCCCCCCCCCCO[C@H]1O[C@H](COCC(CO)(CO)COS(=O)(=O)O)[C@@H](O)[C@H](O)[C@H]1NC(=O)CCCC | 3.2 µM | Active |  |  |  |  | 
